Source: patent US20100178259A1, “REDUCING FIBROSIS USING MATRIX METALLOPROTEINASE INHIBITORS” (The Regents of The University of Michigan, priority 2009, published 2010)
“Also recorded” adds a separate entry of the source.

Experiments:
MMP-9 = MMP-9 (Homo sapiens, UniProt P14780); conditions: in vitro; cited from earlier work
[1] = system: HRS/J hairless mice skin exposed to UV irradiation; test: UV irradiation sunburn/scarring in hairless mice, topical treatment, skin cross-section histology; assay type: in vivo, mouse; conditions: UV 200-400 mJ/square cm, topical 1% MMI270 in 70% ethanol (95%) and 30% propylene glycol daily after UV exposure, compared to untreated irradiated skin (FIG. 2)
Method: The following experiments illustrate embodiments of the present technology. Experimental mice (HRS/J hairless mice) are treated with UV irradiation at a dosage that results in sunburn and consequent scarring of the skin. UV exposure includes daily exposure (Mon-Fri), or 3× per week (Mon, Wed, Fri), at 200-400 mJ/square cm, until scarring occurs, typically after 2-3 weeks. The UVB/A2 source is FS tubes filtered with Kodacel to remove wavelengths below 290 nm. Non-irradiated mice serve as non-wounded controls.
FIG. 1 is a photograph of a tissue cross-section of non-irradiated mouse skin. The outer surface of the skin includes a layer 110 of dead skin cells overtop the epidermis 120. Located beneath the epidermis 120, is a region comprising extracellular matrix 130, which includes collagen and other proteins. A layer of fat cells 140 underlies the extracellular matrix 130 and is followed by muscle 150. Hair follicles 160 can be seen embedded within the extracellular matrix 130 region.
FIG. 2 is a photograph of a tissue cross-section of mouse skin that was exposed to UV irradiation to cause a burn and that was not treated with MMP inhibitor. Morphology of the skin changes in response to the burn wound which can subsequently form into a scar. The outer skin surface and layer 210 of dead skin cells overlies a thickened epidermis 220 followed by a thickened region of extracellular matrix 230. […]

MMP-2 = target: T1, MMP-2 (Homo sapiens, UniProt P08253); conditions: in vitro; cited from earlier work
T1 sequence (P08253 110-660): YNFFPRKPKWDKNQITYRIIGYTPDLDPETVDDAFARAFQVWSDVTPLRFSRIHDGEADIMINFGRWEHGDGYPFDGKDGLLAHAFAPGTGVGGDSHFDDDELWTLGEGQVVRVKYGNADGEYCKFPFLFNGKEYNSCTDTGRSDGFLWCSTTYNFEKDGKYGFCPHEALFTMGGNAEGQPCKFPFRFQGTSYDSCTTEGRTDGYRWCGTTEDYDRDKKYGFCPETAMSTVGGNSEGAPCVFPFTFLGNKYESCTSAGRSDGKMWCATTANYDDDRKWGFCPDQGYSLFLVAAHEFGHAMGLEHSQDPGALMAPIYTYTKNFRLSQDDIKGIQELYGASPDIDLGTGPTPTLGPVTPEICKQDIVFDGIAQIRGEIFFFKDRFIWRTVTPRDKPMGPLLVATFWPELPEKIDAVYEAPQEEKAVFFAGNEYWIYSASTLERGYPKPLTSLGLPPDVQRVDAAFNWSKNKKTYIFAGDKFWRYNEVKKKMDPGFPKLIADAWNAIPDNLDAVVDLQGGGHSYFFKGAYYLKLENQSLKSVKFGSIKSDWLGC

MMP-1 = target: T2, MMP-1 (Homo sapiens, UniProt P03956); conditions: in vitro; cited from earlier work
T2 sequence (P03956 100-469): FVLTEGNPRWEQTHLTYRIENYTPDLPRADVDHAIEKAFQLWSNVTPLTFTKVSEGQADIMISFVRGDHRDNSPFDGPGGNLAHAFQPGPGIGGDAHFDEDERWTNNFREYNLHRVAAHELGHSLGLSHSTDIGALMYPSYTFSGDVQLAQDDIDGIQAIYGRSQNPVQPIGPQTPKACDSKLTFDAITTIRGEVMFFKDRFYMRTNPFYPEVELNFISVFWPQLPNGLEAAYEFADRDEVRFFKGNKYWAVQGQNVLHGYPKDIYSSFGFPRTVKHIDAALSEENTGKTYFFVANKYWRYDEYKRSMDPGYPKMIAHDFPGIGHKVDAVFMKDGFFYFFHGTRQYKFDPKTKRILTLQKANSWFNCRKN

MMP-3 = MMP-3 (Homo sapiens, UniProt P08254); conditions: in vitro; cited from earlier work
Sequence of MMP-3 (P08254 100-477, species assumed): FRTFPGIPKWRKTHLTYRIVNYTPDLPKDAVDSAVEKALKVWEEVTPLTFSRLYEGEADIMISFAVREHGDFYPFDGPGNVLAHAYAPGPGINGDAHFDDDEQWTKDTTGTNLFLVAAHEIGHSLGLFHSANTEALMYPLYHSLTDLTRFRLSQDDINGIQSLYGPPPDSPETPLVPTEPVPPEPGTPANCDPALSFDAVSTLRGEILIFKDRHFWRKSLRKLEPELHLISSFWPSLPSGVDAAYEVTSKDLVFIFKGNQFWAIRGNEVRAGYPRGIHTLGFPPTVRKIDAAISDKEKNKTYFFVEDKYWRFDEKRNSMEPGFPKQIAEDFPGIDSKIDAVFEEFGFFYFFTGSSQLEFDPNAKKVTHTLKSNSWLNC

Sequence of MMP-9 (P14780 94-707, species assumed): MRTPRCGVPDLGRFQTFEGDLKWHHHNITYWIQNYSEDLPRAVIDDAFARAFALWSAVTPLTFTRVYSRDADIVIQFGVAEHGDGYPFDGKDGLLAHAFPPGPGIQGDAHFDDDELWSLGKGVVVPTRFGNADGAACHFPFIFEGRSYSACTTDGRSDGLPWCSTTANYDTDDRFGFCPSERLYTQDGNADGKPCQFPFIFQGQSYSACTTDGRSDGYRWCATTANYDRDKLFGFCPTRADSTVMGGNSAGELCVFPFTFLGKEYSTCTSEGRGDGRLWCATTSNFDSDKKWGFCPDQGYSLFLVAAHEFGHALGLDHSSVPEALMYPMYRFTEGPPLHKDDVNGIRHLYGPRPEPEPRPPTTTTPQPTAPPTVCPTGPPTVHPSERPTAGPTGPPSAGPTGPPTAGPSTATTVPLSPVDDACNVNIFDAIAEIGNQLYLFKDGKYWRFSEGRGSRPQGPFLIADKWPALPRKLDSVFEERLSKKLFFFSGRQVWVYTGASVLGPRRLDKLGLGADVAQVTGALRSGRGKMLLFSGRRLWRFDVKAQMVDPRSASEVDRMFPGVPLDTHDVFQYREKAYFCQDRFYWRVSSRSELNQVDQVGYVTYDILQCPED

## COc1ccc(S(=O)(=O)N(Cc2cccnc2)[C@@H](C(=O)NO)C(C)C)cc1 [MMI270, N-hydroxy-2(R)-[[4-methoxybenzenesulfonyl]-(3-picolyl)amino]-3-methylbutanamide]
MMP-9
  concentration inhibiting MMP-9 activity: nanomolar concentrations
[1]
  expansion and thickening of the epidermis and extracellular matrix: less expansion and thickening of the epidermis and extracellular matrix; also recorded: decrease in thickness of the extracellular matrix
MMP-2
  concentration inhibiting MMP-2 activity: nanomolar concentrations
MMP-1
  concentration inhibiting MMP-1 activity: nanomolar concentrations
MMP-3
  concentration inhibiting MMP-3 activity: nanomolar concentrations
